The text below walks through data of ChEMBL document CHEMBL5113503, “Synthesis and biological evaluation of 4-(4-aminophenyl)-6-methylisoxazolo[3,4-b] pyridin-3-amine covalent inhibitors as potential agents for the treatment of acute myeloid leukemia” (Bioorg Med Chem, 2022).

The test system of data set [1] is HepG2. Nature of the data set: Antiproliferative activity human HepG2 cells assessed as cell growth inhibition measured after 72 hrs by CCK8 assay. As to conditions: HepG2, 72 h. (In general: Tetrazolium dyes change colour on reduction, which living cells bring about.)
Data set [2] concerns MV4-11. Nature of the data set: Induction of cell cycle arrest in human MV4-11 cells assessed as accumulation at G0/G1 phase at 0.5 uM measured after 24 hrs by flow cytometry (reference value: 64.29 %). It counts as functional.
The nature of data set [3]: Cytotoxicity against human K562 cells assessed as cell growth inhibition measured after 72 hrs by CCK8 assay. It counts as toxicity, cell-based.
The subject of data set [4] is HL-60. Nature of the data set: Antiproliferative activity against human HL-60 cells harboring wildtype FLT3 assessed as cell growth inhibition measured after 72 hrs by CCK8 assay. As to conditions: HL-60, 72 h.
Data set [5] concerns MV4-11. Nature of the data set: Induction of apoptosis in human MV4-11 cells assessed as viable cells at 0.1 uM measured after 48 hrs by Annexin V-FITC/PI double staining based flow cytometric analysis (reference value: 80.26 %). As to conditions: read-out: Activity. The class given is functional.
In data set [6] the test system is MV4-11. Nature of the data set: Induction of apoptosis in human MV4-11 cells assessed as viable cells at 0.5 uM measured after 48 hrs by Annexin V-FITC/PI double staining based flow cytometric analysis (reference value: 80.26 %). As to conditions: read-out: Activity. The class given is functional. Background: In flow cytometry, cells or beads pass a laser one at a time.

The test system of data set [7] is MV4-11. Nature of the data set: Induction of apoptosis in human MV4-11 cells assessed as early apoptotic cells at 0.5 uM measured after 48 hrs by Annexin V-FITC/PI double staining based flow cytometric analysis (reference value: 2.04 %). The class given is functional.
For data set [8], the target named is T1, Signal transducer and activator of transcription 5A (Homo sapiens) (UniProt P42229).
T1 sequence (whole entry): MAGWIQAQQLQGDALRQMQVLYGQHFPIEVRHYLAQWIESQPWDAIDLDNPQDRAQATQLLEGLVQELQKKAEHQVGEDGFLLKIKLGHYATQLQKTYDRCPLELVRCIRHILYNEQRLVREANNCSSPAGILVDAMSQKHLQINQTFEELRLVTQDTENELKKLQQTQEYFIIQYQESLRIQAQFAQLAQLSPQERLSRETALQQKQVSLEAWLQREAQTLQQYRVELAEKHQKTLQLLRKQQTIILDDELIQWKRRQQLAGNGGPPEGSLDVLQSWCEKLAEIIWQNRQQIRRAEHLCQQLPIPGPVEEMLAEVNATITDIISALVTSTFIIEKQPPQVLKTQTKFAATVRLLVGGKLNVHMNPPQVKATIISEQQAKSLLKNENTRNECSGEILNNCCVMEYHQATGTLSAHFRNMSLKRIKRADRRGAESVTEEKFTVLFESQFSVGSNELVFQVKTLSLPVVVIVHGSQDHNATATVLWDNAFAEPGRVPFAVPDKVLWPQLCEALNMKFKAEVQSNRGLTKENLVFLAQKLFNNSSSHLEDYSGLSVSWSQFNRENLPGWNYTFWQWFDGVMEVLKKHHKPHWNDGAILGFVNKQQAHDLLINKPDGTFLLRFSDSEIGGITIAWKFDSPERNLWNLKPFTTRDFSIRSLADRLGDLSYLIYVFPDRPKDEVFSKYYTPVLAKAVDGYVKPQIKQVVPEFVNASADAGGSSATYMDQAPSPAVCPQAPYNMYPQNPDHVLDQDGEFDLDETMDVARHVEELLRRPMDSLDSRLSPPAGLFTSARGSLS
Kind of data set: Inhibition of STAT5 phosphorylation in human MV4-11 cells incubated for 12 hrs by Western blot analysis. The class given is cell-based. As to conditions: dose 0.1-2.5 µM, DDE = dose-dependent effect. For orientation: In western blotting, separated proteins are transferred to a membrane and probed.

The subject of data set [9] is MV4-11. Kind of data set: Induction of cell cycle arrest in human MV4-11 cells assessed as accumulation at G0/G1 phase at 2.5 uM measured after 24 hrs by flow cytometry (reference value: 64.29 %). The class given is functional.
Data set [10] concerns MV4-11. Kind of data set: Induction of apoptosis in human MV4-11 cells assessed as early apoptotic cells at 0.1 uM measured after 48 hrs by Annexin V-FITC/PI double staining based flow cytometric analysis (reference value: 2.04 %). The class given is functional.
In data set [11] the test system is MV4-11. Kind of data set: Induction of apoptosis in human MV4-11 cells assessed as late apoptotic cells at 2.5 uM measured after 48 hrs by Annexin V-FITC/PI double staining based flow cytometric analysis (reference value: 12.03 %). It counts as functional.
For data set [12], the system named is MV4-11. Nature of the data set: Induction of apoptosis in human MV4-11 cells assessed as necrotic cells at 0.1 uM measured after 48 hrs by Annexin V-FITC/PI double staining based flow cytometric analysis (reference value: 5.67 %). The class given is functional.
Data set [13] is described as follows: Cytotoxicity against HUVEC cells assessed as cell growth inhibition measured after 72 hrs by CCK8 assay. It counts as toxicity, cell-based. As to conditions: human.
For data set [14], the system named is MV4-11. Nature of the data set: Induction of apoptosis in human MV4-11 cells assessed as necrotic cells at 0.5 uM measured after 48 hrs by Annexin V-FITC/PI double staining based flow cytometric analysis (reference value: 5.67 %). The class given is functional.
The target of data set [15] is T2, Receptor-type tyrosine-protein kinase FLT3 (Homo sapiens, UniProt P36888).
T2 sequence (P36888 whole entry): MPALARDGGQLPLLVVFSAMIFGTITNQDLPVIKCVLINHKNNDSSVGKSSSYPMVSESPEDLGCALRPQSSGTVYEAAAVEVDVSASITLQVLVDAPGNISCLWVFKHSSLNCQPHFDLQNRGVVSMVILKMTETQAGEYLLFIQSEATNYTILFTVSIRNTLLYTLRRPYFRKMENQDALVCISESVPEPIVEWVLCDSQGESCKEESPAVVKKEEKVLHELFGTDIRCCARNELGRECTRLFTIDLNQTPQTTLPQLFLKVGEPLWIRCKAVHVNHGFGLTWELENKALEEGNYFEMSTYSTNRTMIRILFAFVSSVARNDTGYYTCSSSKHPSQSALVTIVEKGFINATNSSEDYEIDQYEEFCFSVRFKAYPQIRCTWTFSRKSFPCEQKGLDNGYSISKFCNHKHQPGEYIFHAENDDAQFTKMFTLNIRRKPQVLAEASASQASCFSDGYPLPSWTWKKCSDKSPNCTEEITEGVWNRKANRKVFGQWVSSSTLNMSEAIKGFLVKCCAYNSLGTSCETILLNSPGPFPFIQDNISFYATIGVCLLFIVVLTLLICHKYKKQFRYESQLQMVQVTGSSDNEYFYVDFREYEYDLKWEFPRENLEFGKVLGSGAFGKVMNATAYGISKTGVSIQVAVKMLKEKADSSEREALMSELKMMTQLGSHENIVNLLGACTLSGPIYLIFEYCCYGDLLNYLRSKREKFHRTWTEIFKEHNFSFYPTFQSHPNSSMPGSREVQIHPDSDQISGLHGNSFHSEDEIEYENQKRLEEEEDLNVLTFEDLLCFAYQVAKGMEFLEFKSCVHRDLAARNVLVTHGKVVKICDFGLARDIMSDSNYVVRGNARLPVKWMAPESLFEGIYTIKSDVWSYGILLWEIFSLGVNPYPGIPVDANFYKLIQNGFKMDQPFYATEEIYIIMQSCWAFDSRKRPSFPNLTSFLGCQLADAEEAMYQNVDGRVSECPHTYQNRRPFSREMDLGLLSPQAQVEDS
Nature of the data set: Inhibition of FLT3 (unknown origin) preincubated with compound for 10 mins followed by substrate addition and measured after 1 hrs by ADP-Glo kinase assay.

The subject of data set [16] is MV4-11. Nature of the data set: Induction of apoptosis in human MV4-11 cells assessed as late apoptotic cells at 0.1 uM measured after 48 hrs by Annexin V-FITC/PI double staining based flow cytometric analysis (reference value: 12.03 %). The class given is functional.

In general, IC50 refers to the concentration that inhibits the measured activity by half. For `C=CC(=O)Nc1ccc(NC(=O)Nc2ccc(-c3cc(C)nc4noc(N)c34)cc2)cc1`, the half-inhibitory concentration (IC50) in [1] was > 10 µM; in data set [4], > 10 µM; in [15], 0.256 µM. The Activity stood at 71.37% in data set [2]; 2.43% in [7]; 83% in data set [9]; 1.83% in data set [10]; 35.01% in data set [11]; 4.51% in data set [12]. In addition, the figures for the Activity in [14] and in data set [16] were 5.47% and 11.88%, respectively. Further, the concentration for half-maximal inhibition (IC50) at 72 h in data set [3] and in data set [13] was > 10 µM throughout. Besides, in data set [5], the viability at 0.1 µM came out at 81.8%. The viability at 0.5 µM in [6] came to 77.5%. For the same compound, the inhibition entry in data set [8] was “Dde”.
